In brackets after ≈: the same amount, converted by molar mass. Like-named read-outs stand apart in the source and are kept apart here.
How the values were obtained:
[1] = tested on: S. aureus ATCC 25923; assay: MIC by microdilution, S. aureus ATCC 25923; format: cell-based; settings: Staphylococcus aureus, ATCC25923
Experimental: (§1) Compounds were tested against Gram-positive and Gram-negative bacteria, including sensitive or drug resistant strains from American Type Culture Collection (ATCC), as well as resistant clinical isolates from the culture collection of the Laboratory for Control of Hospital Infections (Sechenov University, Moscow, Russia). Collection cultures of Gram-positive bacteria: Staphylococcus aureus ATCC 25923, Staphylococcus aureus ATCC 3798, Staphylococcus aureus ATCC 700,699 and clinical isolates of Gram-positive bacteria: Staphylococcus aureus 5, Staphylococcus aureus 10, Staphylococcus aureus 100 KS, Staphylococcus epidermidis 533, Enterococcus faecium 569 and collection cultures of Gram-negative bacteria: Escherichia coli ATCC 25922, Klebsiella pneumoniae ATCC 13883, Salmonella cholerasuis ATCC 14,028 were used.
(§2) For the cultivation of the strains, various nutrient media were used: Trypticase Soy Agar BBL for Staphylococcus sp., E. coli, K. pneumoniae, S. cholerasuis and Columbia Agar Base BBL for the cultivation of Enterococcus sp. Cultures grown on appropriate nutrient media at 35 °C for 1 day were used to set up experiments. For determination of the antibacterial action Mueller-Hinton (Acumedia, Baltimore, MD, USA) liquid medium was used. The minimum inhibitory concentrations (MIC) were determined by the microdilution method in 96 well sterile plates in a cation-adjusted Müller-Hinton medium in accordance with the requirements of the Institute of Clinical and Laboratory Standards (CLSI/NCCLS). MIC was defined as the minimum drug concentration that completely prevents the growth of the test organism.

[2] = tested on: S. aureus 10; assay: MIC by microdilution, S. aureus 10; format: cell-based; settings: Staphylococcus aureus
Experimental: as §1, §2

[3] = tested on: S. aureus 5; assay: MIC by microdilution, S. aureus 5; format: cell-based; settings: Staphylococcus aureus
Experimental: as §1, §2

[4] = tested on: S. aureus 100 KC; assay: MIC by microdilution, S. aureus 100 KC; format: cell-based; settings: Staphylococcus aureus
Experimental: as §1, §2

[5] = tested on: S. aureus ATCC 3798; assay: MIC by microdilution, S. aureus ATCC 3798; format: cell-based; settings: Staphylococcus aureus, ATCC3798
Experimental: as §1, §2

[6] = tested on: S. aureus ATCC 700699; assay: MIC by microdilution, S. aureus ATCC 700699; format: cell-based, Staphylococcus aureus
Experimental: as §1, §2

[7] = tested on: S. epidermidis 533; assay: MIC by microdilution, S. epidermidis 533; format: cell-based; settings: Staphylococcus epidermidis
Experimental: as §1, §2

[8] = tested on: E. faecium 569; assay: MIC by microdilution, E. faecium 569; format: cell-based, Enterococcus faecium
Experimental: as §1, §2

[9] = tested on: E. coli ATCC 25922; assay: MIC by microdilution, E. coli ATCC 25922; format: cell-based, Escherichia coli
Experimental: as §1, §2

[10] = tested on: K. pneumoniae ATCC 13883; assay: MIC by microdilution, K. pneumoniae ATCC 13883; format: cell-based; settings: Klebsiella pneumoniae, ATCC13883
Experimental: as §1, §2

[11] = tested on: S. cholerasuis ATCC 14028; assay: MIC by microdilution, S. cholerasuis ATCC 14028; format: cell-based; settings: Salmonella, ATCC14028
Experimental: as §1, §2

[12] = tested on: P. aeruginosa ATCC 27853; assay: MIC by microdilution, P. aeruginosa ATCC 27853; format: cell-based; settings: Pseudomonas aeruginosa, ATCC27853
Experimental: as §2

[13] = Determination of lipophilicity, LogPow by HPLC method; format: physicochemical; settings: experimental, pH 7.4
Description: We used the partition coefficient as an indicator of lipophilicity. The partition coefficient (P) is defined as the ratio of the equilibrium solute concentrations in a two-phase system of immiscible solvents. The most common in practice is the octanol-water (Pow) system. The partition coefficient is usually represented as a decimal logarithm (LogPow). It can be measured in several ways. A most advanced, accurate, and less time-consuming is the HPLC method for determining Pow using high-performance liquid chromatography. HPLC is performed on an analytical column with a solid phase containing long hydrocarbon chains chemically bound to silica gel. The retention time on such a column (Rt) is directly related to the partition coefficient Pow. The most informative in our case was the partition coefficient at a physiological pH value of 7.4. It was at this pH that the main biological experiments with the studied substances were carried out, namely tests of antimicrobial activity and cytotoxicity. HPLC was performed on a Shimadzu LC-20AD system using Kromasil-100-5-C18 (Akzo-Nobel) column, 4.6 × 250 mm, 20 °C temperature, UV detection, mobile phase A—0.2% HCOONH4), mobile phase B-MeCN, (pH 7.4), fl-1 mL/min., loop 20 mkl. After calibration using substances with a known LogPow, it is possible to recalculate Rt to LogPow. For calibration, we used aniline (LogPow 0.9), p-chloroaniline (LogPow 1.8), diphenylamine (LogPow 3.4), triphenylamine (LogPow 5.7).

[14] = substances with a known LogPow used for HPLC calibration; cited from earlier work
[15] = tested on: Gram-positive and Gram-negative bacteria; assay: Antibacterial activity in vitro, strain panel in general; format: cell-based; settings: general statement over the strain panel
Experimental: as §1, §2

[16] = S. aureus ATCC 25923, sensitive to all antibiotics, read-out: MIC
[17] = clinical isolate S. aureus 10, sensitive to all antibiotics, read-out: MIC
[18] = S. aureus 5, methicillin resistant (MRSA) clinical isolate, read-out: MIC
[19] = S. aureus 100 KC, methicillin resistant (MRSA) clinical isolate, read-out: MIC
[20] = S. aureus ATCC 3798, multiresistant incl. ciprofloxacin, levofloxacin, read-out: MIC
[21] = Staphylococcus aureus, ATCC700699, S. aureus ATCC 700699, resistant to levofloxacin, read-out: MIC
[22] = S. epidermidis 533, resistant to gentamicin, read-out: MIC
[23] = Enterococcus faecium, E. faecium 569, resistant to cefuroxime, clindamycin, gentamycin, vancomycin, doxycycline, read-out: MIC
[24] = Escherichia coli, ATCC25922, E. coli ATCC 25922, read-out: MIC
[25] = K. pneumoniae ATCC 13883, read-out: MIC
[26] = S. cholerasuis ATCC 14028, read-out: MIC
[27] = P. aeruginosa ATCC 27853, read-out: MIC
[28] = S. aureus ATCC 700699, resistant to levofloxacin

Structure (SMILES)	MIC [1, 16]	MIC [2, 17]	MIC [3, 18]	MIC [4, 19]	MIC [5, 20]	MIC [6, 21]	MIC [7, 22]	MIC [8, 23]	MIC [9, 24]	MIC [10, 25]	MIC [11, 26]	MIC [12, 27]	LogPow [13]	LogPow of calibration substances [14]	also measured
OCCCn1cc([C+](c2cn(CCCO)c3ccccc23)c2cn(CCCO)c3ccccc23)c2ccccc21.[Cl-] [8b, tris(1-(3-Hydroxypropyl)-1H-indol-3-yl)methylium chloride]	32 µg/mL	8 µg/mL	16 µg/mL	16 µg/mL	16 µg/mL	> 64 µg/mL	32 µg/mL	32 µg/mL	> 64 µg/mL	> 64 µg/mL	> 64 µg/mL	> 64 µg/mL	1.2		
c1ccc(N(c2ccccc2)c2ccccc2)cc1 [triphenylamine]														5.7	
Nc1ccc(Cl)cc1 [p-chloroaniline]														1.8	
OCCCCCn1cc([C+](c2cn(CCCCCO)c3ccccc23)c2cn(CCCCCO)c3ccccc23)c2ccccc21.[Cl-] [8d, tris(1-(5-Hydroxypentyl)-1H-indol-3-yl)methylium chloride]	2 µg/mL	1 µg/mL	4 µg/mL	2 µg/mL	2 µg/mL	2 µg/mL	1 µg/mL	8 µg/mL	8 µg/mL	2 µg/mL	> 64 µg/mL	> 64 µg/mL	4		MIC [6, 28]: active; MIC ([9]; E. coli ATCC 25922): moderate level of activity; MIC (antibacterial activity, strains not specified) [15]: highly active against Gram-positive bacteria
Nc1ccccc1 [aniline]														0.9	
CCN(CC)c1ccc(C(=C2C=CC(=[N+](CC)CC)C=C2)c2ccccc2)cc1 [BG, brilliant green, reference compound]															MIC [1]: 0.06 µg/mL; MIC [2]; 10: 0.13 µg/mL; MIC ([3]; MRSA): 0.06 µg/mL; MIC ([4]; MRSA): 0.06 µg/mL; MIC [5]: 0.06 µg/mL; MIC ([6]; Staphylococcus aureus, ATCC700699): 1 µg/mL; MIC [7]; 533: 0.06 µg/mL; MIC ([8]; Enterococcus faecium, 569): 0.25 µg/mL; MIC ([9]; Escherichia coli, ATCC25922): 4 µg/mL; MIC [10]: 8 µg/mL; MIC [11]: 16 µg/mL; MIC [12]: > 64 µg/mL
c1ccc(Nc2ccccc2)cc1 [diphenylamine]														3.4	
OCCCCn1cc([C+](c2cn(CCCCO)c3ccccc23)c2cn(CCCCO)c3ccccc23)c2ccccc21.[Cl-] [8c, tris(1-(4-Hydroxybutyl)-1H-indol-3-yl)methylium chloride]	16 µg/mL	8 µg/mL	8 µg/mL	16 µg/mL	16 µg/mL	8 µg/mL	16 µg/mL	> 64 µg/mL	32 µg/mL	8 µg/mL	> 64 µg/mL	> 64 µg/mL	2.9		
OCCCCCCn1cc([C+](c2cn(CCCCCCO)c3ccccc23)c2cn(CCCCCCO)c3ccccc23)c2ccccc21.[Cl-] [8e, tris(1-(6-hydroxyhexyl)-1H-indol-3-yl)methylium chloride]	0.5 µg/mL	0.5 µg/mL	0.5 µg/mL	0.5 µg/mL	0.5 µg/mL	0.5 µg/mL	0.5 µg/mL	> 64 µg/mL	8 µg/mL	8 µg/mL	> 64 µg/mL	> 64 µg/mL	5.4		MIC [6, 28]: active; MIC ([8]; E. faecium 569, resistant to cefuroxime, clindamycin, gentamycin, vancomycin, doxycycline): >64 µg/mL; MIC ([9]; E. coli ATCC 25922): moderate level of activity; MIC (antibacterial activity, strains not specified) [15]: highly active against Gram-positive bacteria; MIC ([15]; read-out: MIC (antibacterial activity, strains not specified)): 0.5 µg/mL
OCCn1cc([C+](c2cn(CCO)c3ccccc23)c2cn(CCO)c3ccccc23)c2ccccc21.[Cl-] [8a, tris(1-(2-Hydroxyethyl)-1H-indol-3-yl)methylium chloride]	32 µg/mL	16 µg/mL	64 µg/mL	64 µg/mL	32 µg/mL	32 µg/mL	32 µg/mL	> 64 µg/mL	16 µg/mL	> 64 µg/mL	> 64 µg/mL	> 64 µg/mL	1.15		
C[C@H]1COc2c(N3CCN(C)CC3)c(F)cc3c(=O)c(C(=O)O)cn1c23 [Lf, levofloxacin, reference compound]	0.25 µg/mL (≈ 0.692 µM)	0.13 µg/mL (≈ 0.36 µM)	0.25 µg/mL (≈ 0.692 µM)	32 µg/mL (≈ 88.6 µM)	32 µg/mL (≈ 88.6 µM)	16 µg/mL (≈ 44.3 µM)	0.5 µg/mL (≈ 1.38 µM)	1 µg/mL (≈ 2.77 µM)	0.06 µg/mL (≈ 0.166 µM)	0.25 µg/mL (≈ 0.692 µM)	0.13 µg/mL (≈ 0.36 µM)	1 µg/mL (≈ 2.77 µM)			
